Source: ChEMBL document CHEMBL1153550, “In vitro study of Candida tropicalis isolates exhibiting paradoxical growth in the presence of high concentrations of caspofungin” (2007)
Values after ≈ are worked out from the molar mass of the structure shown. Active and inactive are the calls of the source. The calls are words filed in the database; no cut-off is given here.

Assays:
[1] = test system: Candida tropicalis; assay: Antifungal activity against > 2 x 10^7 CFU/ml Candida tropicalis isolate 8 in antibiotic medium 3 assessed as partial growth after 24 hrs by broth microdilution method; type: functional, organism-based
[2] = test system: Candida tropicalis; assay: Antifungal activity against > 2 x 10^7 CFU/ml Candida tropicalis isolate 6 in antibiotic medium 3 assessed as partial growth after 24 hrs by broth microdilution method; type: functional, organism-based
[3] = test system: Candida tropicalis; assay: Antifungal activity against > 2 x 10^7 CFU/ml Candida tropicalis isolate 3 in antibiotic medium 3 assessed as partial growth after 24 hrs by broth microdilution method; type: functional, organism-based
[4] = test system: Candida tropicalis; assay: Antifungal activity against > 2 x 10^7 CFU/ml Candida tropicalis isolate 15 in RPMI 1640 medium assessed as partial growth after 24 hrs by broth microdilution method; type: functional, organism-based
[5] = test system: Candida tropicalis; assay: Antifungal activity against > 2 x 10^7 CFU/ml Candida tropicalis isolate 13 in RPMI 1640 medium assessed as partial growth after 24 hrs by broth microdilution method; type: functional, organism-based
[6] = test system: Candida tropicalis; assay: Antifungal activity against 2 x 10^7 CFU/ml Candida tropicalis ATCC 750 in antibiotic medium 3 after 24 hrs by broth microdilution method; type: functional; conditions: ATCC 750, 24 h
[7] = test system: Candida tropicalis; assay: Antifungal activity against 2 x 10^7 CFU/ml Candida tropicalis isolate 14 in antibiotic medium 3 after 24 hrs by broth microdilution method; type: functional; conditions: isolate 14, 24 h
[8] = test system: Candida tropicalis; assay: Antifungal activity against 2 x 10^7 CFU/ml Candida tropicalis isolate 13 in antibiotic medium 3 after 24 hrs by broth microdilution method; type: functional; conditions: isolate 13, 24 h
[9] = test system: Candida tropicalis; assay: Antifungal activity against 2 x 10^7 CFU/ml Candida tropicalis isolate 9 in antibiotic medium 3 after 24 hrs by broth microdilution method; type: functional; conditions: isolate 9, 24 h
[10] = test system: Candida tropicalis; assay: Antifungal activity against 2 x 10^7 CFU/ml Candida tropicalis isolate 5 in antibiotic medium 3 after 24 hrs by broth microdilution method; type: functional; conditions: isolate 5, 24 h
[11] = test system: Candida tropicalis; assay: Antifungal activity against 2 x 10^7 CFU/ml Candida tropicalis isolate 4 in antibiotic medium 3 after 24 hrs by broth microdilution method; type: functional; conditions: isolate 4, 24 h
[12] = test system: Candida tropicalis; assay: Antifungal activity against 2 x 10^7 CFU/ml Candida tropicalis isolate 2 in antibiotic medium 3 after 24 hrs by broth microdilution method; type: functional; conditions: isolate 2, 24 h
[13] = test system: Candida tropicalis; assay: Antifungal activity against 2 x 10^7 CFU/ml Candida tropicalis isolate 15 in RPMI 1640 medium after 24 hrs by broth microdilution method; type: functional; conditions: isolate 15, 24 h
[14] = test system: Candida tropicalis; assay: Antifungal activity against 2 x 10^7 CFU/ml Candida tropicalis isolate 14 in RPMI 1640 medium after 24 hrs by broth microdilution method; type: functional; conditions: isolate 14, 24 h
[15] = test system: Candida tropicalis; assay: Antifungal activity against 2 x 10^7 CFU/ml Candida tropicalis isolate 12 in RPMI 1640 medium after 24 hrs by broth microdilution method; type: functional; conditions: isolate 12, 24 h
[16] = test system: Candida tropicalis; assay: Antifungal activity against 2 x 10^7 CFU/ml Candida tropicalis isolate 11 in RPMI 1640 medium after 24 hrs by broth microdilution method; type: functional; conditions: isolate 11, 24 h
[17] = test system: Candida tropicalis; assay: Antifungal activity against 2 x 10^7 CFU/ml Candida tropicalis isolate 8 in RPMI 1640 medium after 24 hrs by broth microdilution method; type: functional; conditions: isolate 8, 24 h
[18] = test system: Candida tropicalis; assay: Antifungal activity against 10^5 CFU/ml Candida tropicalis isolate 13 in RPMI 1640 medium at =< 0.09 ug/ml after 24 hrs followed by incubation in drug free medium for 48 hrs by broth microdilution method; type: functional, organism-based
[19] = test system: Candida tropicalis; assay: Antifungal activity against 10^5 CFU/ml Candida tropicalis isolate 4 in RPMI 1640 medium at 12.5 ug/ml treated for 48 hrs followed by incubation in drug free medium for 48 hrs by broth microdilution method; type: functional, organism-based
[20] = test system: Candida tropicalis; assay: Antifungal activity against 10^5 CFU/ml Candida tropicalis isolate 8 in RPMI 1640 medium at 12.5 ug/ml treated for 48 hrs followed by incubation in drug free medium for 48 hrs by broth microdilution method; type: functional, organism-based
[21] = test system: Candida tropicalis; assay: Antifungal activity against 10^5 CFU/ml Candida tropicalis isolate 13 in RPMI 1640 medium at 12.5 ug/ml treated for 48 hrs followed by incubation in drug free medium for 48 hrs by broth microdilution method; type: functional, organism-based
[22] = test system: Candida tropicalis; assay: Antifungal activity against Candida tropicalis isolate 6 in RPMI 1640 medium assessed as paradoxical growth at 6.25 ug/ml after 24 hrs by broth microdilution method; type: functional, organism-based
[23] = test system: Candida tropicalis; assay: Antifungal activity against Candida tropicalis isolate 7 in RPMI 1640 medium assessed as paradoxical growth at 6.25 ug/ml after 24 hrs by broth microdilution method; type: functional, organism-based
[24] = test system: Candida tropicalis; assay: Antifungal activity against Candida tropicalis isolate 7 in RPMI 1640 medium assessed as paradoxical growth at 6.25 ug/ml after 48 hrs by broth microdilution method; type: functional, organism-based
[25] = test system: Candida tropicalis; assay: Antifungal activity against Candida tropicalis isolate 5 in RPMI 1640 medium assessed as paradoxical growth at 12.5 ug/ml after 48 hrs by broth microdilution method; type: functional, organism-based
[26] = test system: Candida tropicalis; assay: Fungistatic activity against Candida tropicalis clinical isolates at 12.5 ug/ml after 24 to 48 hrs by time-kill assay; type: functional, organism-based
[27] = test system: Candida tropicalis; assay: Antifungal activity against 10^5 CFU/ml Candida tropicalis ATCC 750 in RPMI 1640 medium at 0.4 to 12.5 ug/ml treated for 48 hrs followed by incubation in drug free medium for 48 hrs by broth microdilution method; type: functional, organism-based
[28] = test system: Candida tropicalis; assay: Antifungal activity against 10^5 CFU/ml Candida tropicalis isolate 4 in RPMI 1640 medium at 0.4 to 12.5 ug/ml treated for 24 hrs followed by incubation in drug free medium for 48 hrs by broth microdilution method; type: functional, organism-based
[29] = test system: Candida tropicalis; assay: Antifungal activity against Candida tropicalis isolate 1 in antibiotic medium 3 assessed as paradoxical growth at 12.5 ug/ml after 24 hrs by broth microdilution method; type: functional, organism-based
[30] = test system: Candida tropicalis; assay: Antifungal activity against 10^5 CFU/ml Candida tropicalis isolate 7 in RPMI 1640 medium at =< 0.09 ug/ml after 24 hrs followed by incubation in drug free medium for 48 hrs by broth microdilution method; type: functional, organism-based
[31] = test system: Candida tropicalis; assay: Antifungal activity against 10^5 CFU/ml Candida tropicalis isolate 2 in RPMI 1640 medium at =< 0.09 ug/ml after 24 hrs followed by incubation in drug free medium for 48 hrs by broth microdilution method; type: functional, organism-based
[32] = test system: Candida tropicalis; assay: Antifungal activity against 10^5 CFU/ml Candida tropicalis isolate 6 in antibiotic medium 3 at 12.5 ug/ml treated for 24 hrs followed by incubation in drug free medium for 48 hrs by broth microdilution method; type: functional, organism-based
[33] = test system: Candida tropicalis; assay: Antifungal activity against 10^5 CFU/ml Candida tropicalis isolate 13 in RPMI 1640 medium at 12.5 ug/ml treated for 24 hrs followed by incubation in drug free medium for 48 hrs by broth microdilution method; type: functional, organism-based
[34] = test system: Candida tropicalis; assay: Antifungal activity against 10^5 CFU/ml Candida tropicalis isolate 12 in RPMI 1640 medium at 12.5 ug/ml treated for 24 hrs followed by incubation in drug free medium for 48 hrs by broth microdilution method; type: functional, organism-based
[35] = test system: Candida tropicalis; assay: Antifungal activity against > 2 x 10^7 CFU/ml Candida tropicalis isolate 12 in antibiotic medium 3 assessed as partial growth after 24 hrs by broth microdilution method; type: functional, organism-based

`CC[C@H](C)C[C@H](C)CCCCCCCCC(=O)N[C@H]1C[C@@H](O)[C@@H](NCCN)NC(=O)[C@@H]2[C@@H](O)CCN2C(=O)[C@H]([C@H](O)CCN)NC(=O)[C@H]([C@H](O)[C@@H](O)c2ccc(O)cc2)NC(=O)[C@@H]2C[C@@H](O)CN2C(=O)[C@H]([C@@H](C)O)NC1=O` [CASPOFUNGIN] was tested, and the Activity [1] was “inactive”, the Activity [2] was “inactive” and the Activity [3] was “inactive”. The Activity [4] was “inactive”, the Activity [5] was “inactive” and the MIC [6] was 0.024 µg/mL (≈ 0.022 µM). The MIC [7] was 0.024 µg/mL (≈ 0.022 µM), the MIC [8] was 0.024 µg/mL (≈ 0.022 µM) and the MIC [9] was 0.024 µg/mL (≈ 0.022 µM). It also gave an MIC [10] of 0.024 µg/mL (≈ 0.022 µM), an MIC [11] of 0.024 µg/mL (≈ 0.022 µM) and an MIC [12] of 0.024 µg/mL (≈ 0.022 µM). It also gave an MIC [13] of 0.024 µg/mL (≈ 0.022 µM), an MIC [14] of 0.024 µg/mL (≈ 0.022 µM) and an MIC [15] of 0.024 µg/mL (≈ 0.022 µM). The MIC [16] was 0.024 µg/mL (≈ 0.022 µM), the MIC [17] was 0.024 µg/mL (≈ 0.022 µM) and the Activity [18] was “Active”. The Activity [19] was “inactive”, the Activity [20] was “inactive” and the Activity [21] was “inactive”. The Activity [22] was “inactive”, the Activity [23] was “Active” and the Activity [24] was “Active”. For the same compound, the Activity [25] was “inactive”, the Activity [26] was “Active” and the Activity [27] was “inactive”. For the same compound, the Activity [28] was “inactive”, the Activity [29] was “inactive” and the Activity [30] was “Active”. The Activity [31] was “Active”, the Activity [32] was “inactive” and the Activity [33] was “inactive”. For the same compound, the Activity [34] was “inactive” and the Activity [35] was “inactive”.
